From DBAASP
In brackets after ≈: the same amount, converted by molar mass. One block for each compound: values may come before it.

Experiments:
Test in all cases: ≥ marks a high value that may be exact or a test limit, other limits are often not marked, values filed in µg/mL are converted to µM
Escherichia coli = system: Escherichia coli
Staphylococcus aureus = system: Staphylococcus aureus
Bacillus subtilis = system: Bacillus subtilis
Candida albicans = system: Candida albicans
[1] = system: Staphylococcus aureus ATCC 6538
[2] = system: Pseudomonas aeruginosa ATCC 9027
[3] = system: Staphylococcus aureus ATCC 25923
[4] = system: Escherichia coli ATCC 25922
Acinetobacter baumannii = system: Acinetobacter baumannii
[5] = system: Klebsiella pneumoniae ATCC 700603
[6] = system: Bacillus subtilis ATCC 6633
[7] = system: Staphylococcus aureus ATCC 29213
[8] = system: Staphylococcus epidermidis ATCC 12228
Escherichia coli UB1005 = system: Escherichia coli UB1005
[9] = system: Salmonella enterica subsp. enterica serovar Typhimurium C77-31
[10] = system: Acinetobacter baumannii ATCC 19606

MIC (Escherichia coli): 25.1 µM (≈ 42.5 µg/mL)
MIC (Staphylococcus aureus): 12.6 µM (≈ 21.3 µg/mL)
MIC (Bacillus subtilis): ≥ 50.2 µM
MIC (Candida albicans): 12.6 µM (≈ 21.3 µg/mL)
Compound: CC(C)C[C@H](NC(=O)[C@@H](N)Cc1ccccc1)C(=O)N1CCC[C@H]1C(=O)N1CCC[C@H]1C(=O)N[C@@H](CO)C(=O)N1CCC[C@H]1C(=O)N[C@@H](Cc1c[nH]c2ccccc12)C(=O)N[C@@H](CCCCN)C(=O)N[C@@H](CCC(=O)O)C(=O)N[C@H](C(=O)N[C@@H](Cc1ccccc1)C(=O)N[C@@H](CCCN=C(N)N)C(=O)N[C@H](C(=O)N[C@@H](CO)C(=O)O)[C@@H](C)O)[C@@H](C)O [FLPPSPWKETFRTS]

MIC (Escherichia coli): 11.5 µM (≈ 23.6 µg/mL)
MIC (Staphylococcus aureus): 2.88 µM (≈ 5.89 µg/mL)
MIC (Bacillus subtilis): 2.88 µM (≈ 5.89 µg/mL)
MIC (Candida albicans): 5.76 µM (≈ 11.8 µg/mL)
Compound: CC[C@H](C)[C@H](NC(=O)CN)C(=O)N[C@@H](Cc1ccccc1)C(=O)NCC(=O)N[C@@H](CCCCN)C(=O)N[C@H](C(=O)N[C@@H](CC(C)C)C(=O)NCC(=O)N[C@H](C(=O)NCC(=O)N[C@@H](CCCCN)C(=O)N[C@@H](CCCCN)C(=O)N[C@H](C(=O)N[C@@H](CC(C)C)C(=O)N[C@H]1CSSC[C@@H](C(=O)O)NC(=O)[C@H](C(C)C)NC(=O)CNC(=O)[C@H](CO)NC(=O)[C@H](CC(C)C)NC(=O)CNC1=O)C(C)C)C(C)C)[C@@H](C)CC [GIFGKILGVGKKVLCGLSGVC]

MIC [3]: 51.5 µM (≈ 99.9 µg/mL)
MIC [6]: 25.8 µM (≈ 50.1 µg/mL)
Compound: CC(C)C[C@H](NC(=O)[C@@H]1CSSC[C@H](NC(=O)CNC(=O)[C@H](CCCN=C(N)N)NC(=O)[C@H](Cc2ccccc2)NC(=O)[C@H](C)NC(=O)[C@H](C)N)C(=O)N[C@@H](Cc2c[nH]c3ccccc23)C(=O)N[C@@H]([C@@H](C)O)C(=O)N[C@@H](CCCCN)C(=O)N[C@@H](CC(N)=O)C(=O)N[C@@H](Cc2ccc(O)cc2)C(=O)N[C@@H](CO)C(=O)N2CCC[C@H]2C(=O)N[C@@H](CCCCN)C(=O)N2CCC[C@H]2C(=O)N1)C(=O)O [AAFRGCWTKNYSPKPCL]

MIC [7]: 128 µM (≈ 378 µg/mL)
MIC [3]: 128 µM (≈ 378 µg/mL)
MIC [4]: 16 µM (≈ 47.2 µg/mL)
MIC [8]: 128 µM (≈ 378 µg/mL)
MIC (Escherichia coli UB1005): 16 µM (≈ 47.2 µg/mL)
MIC [9]: ≥ 128 µM
Compound: CC[C@H](C)[C@H](NC(=O)[C@H](C)NC(=O)[C@H](CCCCN)NC(=O)[C@H](CC(C)C)NC(=O)[C@@H](NC(=O)[C@H](CCCCN)NC(=O)CNC(=O)[C@@H](NC(=O)[C@H](CCCCN)NC(=O)[C@H](CCCCN)NC(=O)[C@H](CC(C)C)NC(=O)[C@H](CCCN=C(N)N)NC(=O)[C@H](CCCCN)NC(=O)[C@H](CCCN=C(N)N)NC(=O)[C@@H](NC(=O)[C@H](CCCCN)NC(=O)[C@H](CCCCN)NC(=O)[C@H](CCCN=C(N)N)NC(=O)[C@H](CC(C)C)NC(=O)[C@H](CCCN=C(N)N)NC(=O)[C@H](CCCN=C(N)N)NC(=O)[C@H](Cc1ccccc1)NC(=O)[C@H](CCCN=C(N)N)NC(=O)CN)[C@@H](C)O)[C@@H](C)CC)C(C)C)C(N)=O [GRFRRLRKKTRKRLKKIGKVLKAI]

MIC (Escherichia coli): 100 µM (≈ 148 µg/mL)
MIC (Bacillus subtilis): ≥ 100 µM
Compound: CC[C@H](C)[C@H](N)C(=O)N[C@@H](CC(N)=O)C(=O)N[C@@H](Cc1c[nH]c2ccccc12)C(=O)N[C@@H](CCCCN)C(=O)N[C@@H](CCCCN)C(=O)N[C@H](C(=O)N[C@@H](C)C(=O)N[C@@H](CO)C(=O)N[C@H](C(=O)NCC(=O)N[C@@H](CCCCN)C(=O)N[C@@H](CCC(=O)O)C(=O)N[C@H](C(N)=O)C(C)C)[C@@H](C)CC)[C@@H](C)CC [INWKKIASIGKEV]

MIC [10]: 1.63 µM (≈ 5 µg/mL)
MIC (Acinetobacter baumannii): 2.3 µM (≈ 7.07 µg/mL)
Compound: CC[C@H](C)[C@H](NC(=O)[C@H](CCCNC(=N)N)NC(=O)[C@@H](NC(=O)[C@@H](NC(=O)[C@@H]1CCCN1C(=O)[C@@H](NC(=O)[C@@H](NC(=O)[C@@H](NC(=O)[C@@H]1CCCN1C(=O)CNC(=O)[C@H](Cc1ccc(O)cc1)NC(=O)[C@H](CCCCN)NC(=O)[C@H](CCCCN)NC(=O)[C@H](Cc1c[nH]c2ccccc12)NC(=O)[C@H](C)NC(=O)[C@H](CCCNC(=N)N)NC(=O)[C@H](CC(C)C)NC(=O)[C@@H](NC(=O)[C@H](CCCCN)NC(=O)[C@H](CCCNC(=N)N)NC(=O)CNC(=O)[C@H](CC(C)C)NC(=O)[C@H](CO)NC(=O)[C@H](CCCNC(=N)N)NC(=O)[C@H](CC(C)C)NC(=O)CNC(=O)CN)[C@@H](C)CC)[C@@H](C)CC)[C@@H](C)CC)C(C)C)[C@@H](C)CC)[C@@H](C)CC)C(N)=O [GGLRSLGRKILRAWKKYGPIIVPIIRI]

MIC (Bacillus subtilis): 0.548 µM (≈ 1.37 µg/mL)
Compound: CC(C)C[C@H](NC(=O)[C@H](CCC(=O)O)NC(=O)[C@H](CC(C)C)NC(=O)[C@H](CO)NC(=O)[C@H](CC(=O)O)NC(=O)[C@H](Cc1ccc(O)cc1)NC(=O)[C@H](CCCN=C(N)N)NC(=O)[C@H](Cc1ccc(O)cc1)NC(=O)CNC(=O)[C@H](Cc1ccccc1)NC(=O)[C@H](CCCCN)NC(=O)[C@H](CCCCN)NC(=O)[C@H](Cc1ccc(O)cc1)NC(=O)[C@H](CC(=O)O)NC(=O)[C@H](Cc1ccccc1)NC(=O)[C@@H](NC(=O)[C@@H](N)CC(=O)O)[C@@H](C)O)C(=O)N[C@@H](CCC(=O)O)C(=O)NCC(=O)N[C@@H](CCCN=C(N)N)C(=O)O [DTFDYKKFGYRYDSLELEGR]

More lines, now with the values behind:

Compound: CC(C)C[C@H](NC(=O)[C@H](CCCCN)NC(=O)[C@H](C)NC(=O)[C@H](CCCCN)NC(=O)[C@H](C)NC(=O)[C@H](CC(C)C)NC(=O)[C@H](CCCCN)NC(=O)[C@H](C)NC(=O)[C@H](CC(C)C)NC(=O)[C@H](CC(C)C)NC(=O)[C@H](CCCCN)NC(=O)[C@H](C)NC(=O)[C@@H](N)Cc1ccccc1)C(N)=O [FAKLLAKLAKAKL]
MIC [1]: 10.6 µM (≈ 15 µg/mL)
MIC [2]: 35.3 µM (≈ 50 µg/mL)

Compound: CC(C)C[C@H](NC(=O)[C@H](CC(C)C)NC(=O)[C@H](CCCCN)NC(=O)[C@H](CCCCN)NC(=O)[C@H](C)NC(=O)[C@H](CC(C)C)NC(=O)[C@H](CC(C)C)NC(=O)[C@H](CCCCN)NC(=O)[C@H](C)NC(=O)[C@@H](N)Cc1ccccc1)C(N)=O [FAKLLAKKLL]
MIC [1]: 87.4 µM (≈ 99.9 µg/mL)
MIC [2]: 175 µM (≈ 200 µg/mL)

Compound: CC[C@H](C)[C@H](NC(=O)[C@H](CCCCN)NC(=O)[C@H](CCCCN)NC(=O)[C@@H](NC(=O)[C@H](CC(C)C)NC(=O)[C@H](CC(C)C)NC(=O)[C@H](CCCCN)NC(=O)CN)C(C)C)C(=O)N[C@H](C(=O)N[C@@H](CO)C(=O)N[C@@H](CC(C)C)C(=O)N[C@H](C(=O)N[C@@H](CCCN=C(N)N)C(=O)N[C@@H](CO)C(=O)N[C@@H](C)C(N)=O)C(C)C)C(C)C [GKLLVKKIVSLVRSA]
MIC [3]: > 25 µM
MIC [4]: > 25 µM
MIC (Acinetobacter baumannii): 25 µM (≈ 40.3 µg/mL)
MIC [2]: > 25 µM
MIC [5]: > 25 µM

Compound: CC(C)C[C@H](NC(=O)[C@H](CCCCN)NC(=O)[C@H](C)NC(=O)[C@H](CC(C)C)NC(=O)[C@H](CC(C)C)NC(=O)[C@H](CCCCN)NC(=O)[C@H](C)NC(=O)[C@@H](N)Cc1ccccc1)C(=O)N[C@@H](C)C(=O)N[C@@H](CCCCN)C(=O)N[C@@H](C)C(=O)N[C@@H](CCCCN)C(=O)NCC(N)=O [FAKLLAKLAKAKG]
MIC [1]: > 147 µM
MIC [2]: > 147 µM

Compound: CC(C)C[C@H](NC(=O)[C@H](C)NC(=O)[C@H](Cc1ccccc1)NC(=O)[C@H](CCCCN)NC(=O)[C@H](CCCCN)NC(=O)[C@H](C)NC(=O)[C@H](CC(C)C)NC(=O)[C@H](CCCCN)NC(=O)[C@H](C)NC(=O)[C@H](Cc1ccccc1)NC(=O)[C@H](CC(C)C)NC(=O)[C@H](CCCCN)NC(=O)[C@H](C)NC(=O)[C@@H](N)Cc1ccccc1)C(N)=O [FAKLFAKLAKKFAL]
MIC [1]: 31.3 µM (≈ 50 µg/mL)
MIC [2]: > 125 µM

Compound: CC(C)C[C@H](NC(=O)[C@H](CCCCN)NC(=O)[C@H](CC(C)C)NC(=O)[C@H](C)NC(=O)[C@H](CC(C)C)NC(=O)[C@H](CCCCN)NC(=O)[C@H](CCCCN)NC(=O)[C@H](CC(C)C)NC(=O)[C@H](CC(C)C)NC(=O)[C@H](CCCCN)NC(=O)[C@H](Cc1c[nH]c2ccccc12)NC(=O)[C@@H](NC(=O)[C@H](CC(C)C)NC(=O)[C@H](CCCCN)NC(=O)[C@@H](N)Cc1ccccc1)C(C)C)C(=O)O [FKLVWKLLKKLALKL]
MIC [3]: 32 µM (≈ 58.9 µg/mL)
MIC [4]: > 64 µM
MIC (Acinetobacter baumannii): ≥ 64 µM
MIC [2]: > 64 µM
MIC [5]: 64 µM (≈ 118 µg/mL)

Compound: CC(C)C[C@H](NC(=O)[C@H](CC(C)C)NC(=O)[C@H](CCCCN)NC(=O)[C@H](CCCCN)NC(=O)[C@H](C)NC(=O)[C@H](CC(C)C)NC(=O)[C@H](CCCCN)NC(=O)[C@H](C)NC(=O)[C@H](CC(C)C)NC(=O)[C@H](CC(C)C)NC(=O)[C@H](CCCCN)NC(=O)[C@H](C)NC(=O)[C@@H](N)C(C)C)C(N)=O [VAKLLAKLAKKLL]
MIC [1]: 3.55 µM (≈ 5 µg/mL)
MIC [2]: 3.55 µM (≈ 5 µg/mL)

Compound: CC(C)C[C@H](NC(=O)[C@H](CC(C)C)NC(=O)[C@H](CCCCN)NC(=O)[C@H](CCCCN)NC(=O)[C@H](C)NC(=O)[C@H](CC(C)C)NC(=O)[C@H](CCCCN)NC(=O)[C@H](CCCCN)NC(=O)[C@H](C)NC(=O)[C@@H](N)Cc1ccccc1)C(N)=O [FAKKLAKKLL]
MIC [1]: > 172 µM
MIC [2]: > 172 µM
